According to patent US20220287949A1, “SAFE PARTICLES FOR THE INTRODUCTION OF USEFUL CHEMICAL AGENTS IN THE BODY WITH CONTROLLED ACTIVATION” (priority 2019, published 2022):
Values after ≈ are worked out from the molar mass of the structure shown. Read-outs that look alike come from different tables or passages of the source. Blank lines part the entries; values can stand above or below the molecule they belong to.

Experiments:
[1] = system: NIH 3T3 murine fibroblasts; experiment: Cytotoxicity of particle components (MTS assay); assay type: cell-based; conditions: dye solution in ethanol, NIH 3T3, 24 hours, 37° C.
Method: Dye components were each dissolved in ethanol (molecular grade ethanol from Fisher Scientific) to produce a stock solution at 1 mM (B141, M071, and Epolight™ 1117) or 100 μM (C161). For each stock solution, additional dilutions were made at 2×, 4×, 8×, 16×, 32×, 64×, and 128×, and each concentration was tested for cytotoxicity against NIH 3T3 murine fibroblasts in a cytotoxicity test. NIH-3T3 cells were plated in a 96-well culture plate at a density of 10,000 cells per well and allowed to adhere to the surface overnight. Different concentrations of the dye solution were added to the NIH 3T3 cells and incubated for 24 hours at 37° C., in a 5% CO2 incubator. Controls for the cytotoxicity experiment included “live” and “dead” (cells were killed due to osmotic pressure by adding D.I. water). “Live” cells had nothing except cell culture media containing 10% FBS added to them and were used to obtain the 100% viability data. The “dead” control was used to obtain the 0% viability data point. After 24 hours, cells were washed twice with 1× PBS containing calcium and magnesium and 100 μL of media was added at the end. To a final volume of 100 μL of media in the wells, 20 μL of PMS activated MTS reagent was added and incubated for 90 minutes. At the end of the 90 minutes, absorbance was measured at 490 nm using a plate reader (Spectramax M2e, Molecular Devices). Viability of cells was calculated using the absorbance measured for the “live” (100%) and “dead” (0%) controls and the results of % viability estimated from the absorbance for the different concentrations of the dyes were plotted in MS Excel using linear regression curve fitting algorithm to obtain the IC30. All the samples were tested in triplicate and results were averaged over the three repeats.

[2] = Laser triggered changing of color of tattoo particles in gelatin; conditions: for Abs: M071 at 458 nm, IR at 1064 nm
Method: Procedure: A solution of gelatin was prepared by adding Knox gelatin (1.0 g) to cold water (12.5 g) in a 100 mL glass jar equipped with a magnetic stir bar. The gelatin was stirred 15-30 minutes and then hot water was added (70° C.) until the total weight was 50.0 g. This gelatin was then used in 2.0 gm aliquots. Colorant loaded PMMA-BMA B-805 copolymer particles with 25% VTMS shells as prepared in Example lb above (20-30 mg) were then added to the gelatin solution (2.0 g) and vortexed in a 4 dram vial. The suspension of the tattoo particles in gelatin was then sonicated for 15-30 minutes before transferring to a 5 cm plastic culture dish. The gelatin suspension was spread evenly and allowed to set. It was then covered and stored at 6° C. until used.
Laser exposure was accomplished as follows: The cover for the culture dish was removed and a 5 cm clear plastic cover was cut and fit over the gelatin to prevent splatter. The top surface was then completely irradiated at 1064 nm with a 5 mm spot using fluences ranging from 2.46 J/cm^2 to 5.09 J/cm^2 using a Nd-YAG Q-switched Lutronic laser (Lutronic Spectra™ VRM II Laser with four distinct Q-switched mode wavelengths: 1064 nm, 532 nm, 585 nm, 650 nm, nano second pulse width, and spectra peak energy: 60 MW, 120 MW and 240 MW).
After irradiating the top surface, the culture dish was covered with its lid, turned over and irradiated from the opposite side to reach any unexposed particles visible only from the bottom side.
Following the complete irradiation, the plastic cover was removed and any adhered gelatin was transferred to a 10 ml centrifuge tube. The gelatin from the culture dish was also removed and transferred to the centrifuge tube with the aid of about 5 ml of water. The culture tube was rinsed with water and any suspended gelatin transferred by pipette to the centrifuge tube. The material in the tube was sonicated until the gelatin was redissolved (20-30 minutes, about 40° C.).
The sample was centrifuged for 20 minutes and the supernatant was removed. The recovered particles were slurried again with water, centrifuged, and the wash water removed. The resultant particles were dried in vacuum at room temperature and analyzed spectroscopically for the presence of dyes as in 2b above.
The standard fluence for removal of tattoo color in designs using these particles is 3.51 J/cm^2. 5.09 J/cm^2 is the maximum fluence on the Lutronic laser using a 5 mm spot. The laser triggered color changing tests were performed on 2 μm 5:1 Y197 (12.5% Y197:6.25% IR 1117), 2 μm 7:1 M071 (6.25% M071, 8.0 wt. % IR 1117), 2 μm 5:1 PBS (2.56 wt. % B141, 0.77 wt. % C161, 0.39 wt. % M071, 1.28 wt. % Y184, 8.0 wt. % IR1117), 2 μm 5:1 Y184 (12.5 wt. % Y184, 8.0 wt. % IR 1117) particles in the entries 21-24 of Table 3 above.(the numeric ratio is weight ratio of PMMA-BMA B-805 copolymer to colorant in the particle)

[3] = Surfactant-based extractable test (dye leaching into 1% SDS); assay type: physicochemical
Method: Dried particles (50 mg) were added to 3 mL of 1% sodium dodecyl sulfate to form a dispersion. The dispersion was sonicated for approximately 1 hour. The dispersion was centrifuged, and the supernatant component was withdrawn and filtered through a […] syringe filter. The absorbance spectrum of the filtrate was measured from 400-1300 nm using Shimadzu UV-3600 UV/VIS/NIR Spectrophotometer in a 1 cm cell.
The amount of the dye leached is calculated as in 2b above by applying Beer's law (Eq. 1) to give leachate concentrations. Leaching reduction is defined as the percentage of dye leached from coated particles when compared to uncoated particles of the same structure.
Portions of these particles were coated with several different shell thicknesses as described in Example lb above and tested for effectiveness in preventing dye leaching following the surfactant-based extractable test described in section Example 3b. […]

[4] = cited from earlier work
[5] = cited from earlier work; remark: listed apart in the source
[6] = 2 μm 5% PB5 particles, 25% VTMS shell, fluence 0 J/cm^2 (no laser)
[7] = 2 μm 5% PB5 particles, 1064 nm laser, fluence 3.51 J/cm^2
[8] = 2 μm 5% PB5 particles, 1064 nm laser, fluence 4.28 J/cm^2
[9] = 2 μm 5% PB5 particles, 1064 nm laser, fluence 5.09 J/cm^2
[10] = 2 μm 7:1 M071 particles, 25% VTMS shell, fluence 0 J/cm^2 (no laser)
[11] = 2 μm 7:1 M071 particles, 1064 nm laser, fluence 2.46 J/cm^2
[12] = 2 μm 7:1 M071 particles, 1064 nm laser, fluence 3.03 J/cm^2
[13] = 2 μm 7:1 M071 particles, 1064 nm laser, fluence 3.51 J/cm^2
[14] = 2 μm 7:1 M071 particles, 1064 nm laser, fluence 4.28 J/cm^2
[15] = 2 μm 7:1 M071 particles, 1064 nm laser, fluence 5.09 J/cm^2
[16] = Table 7B: 0.5 μm 2:1 PB4 particles with a 25% VTMS shell vs uncoated

Molecule: 3,6-bis(2,3-dihydro-1H-indol-1-yl)-9-[2-[[[(1,1-dimethylethoxy)carbonyl]methylamino]sulfonyl]phenyl]-xanthylium [C161]
IC30 (70% viability) [1]: 14.65 μM^a
IC30 (70% viability) ([1]; listed as Cyan dye): about 14 μM

Molecule: 3,6-bis[(2-chlorophenyl)methylamino]-9-[2-[[[(1,1-dimethylethoxy)carbonyl]methylamino]sulfonyl]phenyl]-xanthylium [M071]
IC30 (70% viability) [1]: 63.23 μM^a
IC30 (70% viability) ([1]; listed as Magenta): about 61 μM
% Reduction [2, 6]: 0%
Abs [2, 6]: 0.023
% Reduction [2, 7]: 30%
Abs [2, 7]: 0.016
% Reduction [2, 8]: 30%
Abs [2, 8]: 0.016
% Reduction [2, 9]: 30%
Abs [2, 9]: 0.016
% Reduction [2, 10]: 0%
Abs [2, 10]: 0.207
% Reduction [2, 11]: 23%
Abs [2, 11]: 0.159
% Reduction [2, 12]: 30%
Abs [2, 12]: 0.146
% Reduction [2, 13]: 34%
Abs [2, 13]: 0.137
% Reduction [2, 14]: 47%
Abs [2, 14]: 0.109
% Reduction [2, 15]: 43%
Abs [2, 15]: 0.119
fluence at which the dye decay levels off ([2]; 1064 nm laser, particles in gelatin): 4.28 J/cm^2
decay (reduction) after laser irradiation ([2]; M071 particles, 1064 nm laser, fluences 2.46 to 5.09 J/cm^2): about 50%

Molecule: 6-(dibutylamino)-9-[2-[[[(1,1-dimethylethoxy)carbonyl](methylsulfonyl)amino]methyl]phenyl]-3-methyl-2-(phenylamino)-xanthylium [B141]
IC30 (70% viability) [1]: 61.22 μM^a
IC30 (70% viability) ([1]; listed as Black): about 61 μM

Leachate concentration ([3]; Table 7B: 0.5 μm 2:1 PB4 particles with a 25% VTMS shell): 1.2 µM
Leaching reduced to [3, 16]: 1.4%
Reduction Factor [3, 16]: 72.6
Leachate concentration ([3]; Table 7B: 0.5 μm 2:1 PB4 particles, uncoated particle): 87.1 µM
Molecule: 9-[2-[[[(1,1-dimethylethoxy)carbonyl]methylamino]sulfonyl]phenyl]-3,6-diphenoxy-xanthylium [Y161]

Molecule: NC(=O)CN(CC(=O)O)CC(=O)O [ADA, 2-[(2-amino-2-oxoethyl)-(carboxymethyl)amino]acetic acid]
pKa at 20° C. [4]: 6.62

Molecule: CC(C)(CO)NCCCCS(=O)(=O)O [AMPB]
pKa at 20° C. [4]: 8.8

Molecule: O=S(=O)(O)CCCNC1CCCCC1 [CAPS]
pKa at 20° C. [4]: 10.4

Molecule: C[N+](C)(C)CCN [Cholamine chloride]
pKa at 20° C. [4]: 7.10
Solubility in water at 0° C. ([5]; (as HCl)): 4200 mM

Molecule: NCC(N)=O [Glycinamide]
pKa at 20° C. [4]: 8.2
Solubility in water at 0° C. ([5]; (as HCl)): 6400 mM (≈ 474 mg/mL)

Molecule: O=S(=O)(O)CCCN1CCN(CCO)CC1 [HEPPS, 3-[4-(2-Hydroxyethyl)piperazin-1-yl]propane-1-sulfonic acid]
pKa at 20° C. [4]: 8.1
Solubility in water at 0° C. [5]: Large

Molecule: O=S(=O)(O)CC(O)CN1CCN(CCO)CC1 (stereo not shown) [HEPPSO]
Solubility in water at 0° C. [5]: 2200 mM (≈ 590 mg/mL)

Molecule: O=S(=O)(O)CC(O)CN1CCOCC1 (stereo not shown) [MOPSO, 2-hydroxy-3-morpholin-4-ylpropane-1-sulfonic acid]
Solubility in water at 0° C. [5]: 750 mM (≈ 169 mg/mL)

Molecule: O=S(=O)(O)CCN1CCN(CCS(=O)(=O)O)CC1 [PIPES, piperazine-N,N′-bis(2-ethanesulfonic acid)]
pKa at 20° C. [4]: 6.82

Molecule: O=S(=O)(O)CC(O)CNC(CO)(CO)CO (stereo not shown) [TAPSO, 3-[[1,3-dihydroxy-2-(hydroxymethyl)propan-2-yl]amino]-2-hydroxypropane-1-sulfonic acid]
Solubility in water at 0° C. [5]: 1000 mM (≈ 259 mg/mL)

Molecule: O=S(=O)(O)CCCNC(CO)(CO)CO [TAPS]
Solubility in water at 0° C. [5]: Large
